From the NIST ThermoML archive (doi:10.1016/j.jct.2007.05.015)

Legend:
[1] = xn = mol fraction of the nth substance listed; settings: 298.15 K, 101 kPa, Liquid
[2] = 298.15 K; 101 kPa; Liquid

CN1CCCC1=O [N-methylpyrrolidone] + O
[1]
Settings | mass density [kg/m3] | speed of sound [m/s]
x1 = 0.02533 | 1004.51 | 1573.6
x1 = 0.06006 | 1014.28 | 1646.8
x1 = 0.08026 | 1020.63 | 1684.4
x1 = 0.1008 | 1025.71 | 1724.7
x1 = 0.1191 | 1030.16 | 1731.2
x1 = 0.1399 | 1034.69 | 1745.2
x1 = 0.1596 | 1038.09 | 1747.7
x1 = 0.1779 | 1040.14 | 1749.2
x1 = 0.1964 | 1041.52 | 1751.7
x1 = 0.2203 | 1042.98 | 1750.7
x1 = 0.2399 | 1044.35 | 1750.1
x1 = 0.2602 | 1045.7 | 1745.3
x1 = 0.278 | 1046 | 1741.8
x1 = 0.2987 | 1046.27 | 1735.4
x1 = 0.3296 | 1046.23 | 1725.6
x1 = 0.3794 | 1045.76 | 1707.8
x1 = 0.4497 | 1044.33 | 1687.1
x1 = 0.4986 | 1043.54 | 1670
x1 = 0.5494 | 1041.35 | 1651.2
x1 = 0.5978 | 1039.92 | 1633.6
x1 = 0.649 | 1037.65 | 1621
x1 = 0.6998 | 1035.76 | 1610.2
x1 = 0.7893 | 1032.74 | 1587.7
x1 = 0.8199 | 1031.82 | 1574.4
x1 = 0.8333 | 1031.01 | 1568.3
x1 = 0.8826 | 1030.54 | 1563.8
x1 = 0.8976 | 1029.93 | 1558.4
x1 = 0.9553 | 1028.92 | 1552.2
x1 = 1 | 1028.23 | 1531.5

CN(C)C=O [dimethylformamide]
[2]
Settings | mass density [kg/m3] | speed of sound [m/s]
– | 943.94 | 1457.5

CN(C)C=O [dimethylformamide] + O
[1]
Settings | mass density [kg/m3] | speed of sound [m/s]
x1 = 0.01233 | 996.44 | 1526.3
x1 = 0.0266 | 996.21 | 1555.7
x1 = 0.0276 | 996.23 | 1554.2
x1 = 0.04154 | 996.18 | 1582.3
x1 = 0.05803 | 996.38 | 1607.4
x1 = 0.07593 | 996.62 | 1628.8
x1 = 0.09542 | 996.84 | 1647.5
x1 = 0.1173 | 997.02 | 1659
x1 = 0.1412 | 996.93 | 1675.5
x1 = 0.1677 | 996.02 | 1684.6
x1 = 0.1975 | 995.1 | 1688.2
x1 = 0.23 | 993.87 | 1687.8
x1 = 0.2866 | 990.18 | 1676.6
x1 = 0.3139 | 989.17 | 1669.3
x1 = 0.3771 | 984.28 | 1647.7
x1 = 0.4247 | 981.19 | 1629.1
x1 = 0.4494 | 979.47 | 1620.3
x1 = 0.4755 | 977.79 | 1610.1
x1 = 0.4955 | 976.4 | 1599.5
x1 = 0.5203 | 974.98 | 1592
x1 = 0.5336 | 974.17 | 1585.7
x1 = 0.555 | 972.69 | 1572.1
x1 = 0.5806 | 970.92 | 1565.8
x1 = 0.6169 | 968.9 | 1559
x1 = 0.637 | 967.32 | 1550.5
x1 = 0.6551 | 965.83 | 1545.2
x1 = 0.6931 | 963.35 | 1538.2
x1 = 0.7172 | 961.78 | 1527.7
x1 = 0.7373 | 960.6 | 1519.7
x1 = 0.753 | 959.56 | 1514.8
x1 = 0.7666 | 958.73 | 1512.3
x1 = 0.8037 | 956.19 | 1504.3
x1 = 0.8126 | 955.54 | 1501.2
x1 = 0.8469 | 953.57 | 1493
x1 = 0.8694 | 952.12 | 1491.4
x1 = 0.8911 | 950.68 | 1488.4
x1 = 0.925 | 948.01 | 1476.6
x1 = 0.9661 | 946.28 | 1469.1
x1 = 1 | 943.94 | 1457.5

NC=O [formamide]
[2]
Settings | mass density [kg/m3] | speed of sound [m/s]
– | 1128.78 | 1597.3

NC=O [formamide] + O
[1]
Settings | mass density [kg/m3] | speed of sound [m/s]
x1 = 0.01258 | 1001.58 | 1507
x1 = 0.01991 | 1004.13 | 1512.2
x1 = 0.0361 | 1009.48 | 1522.8
x1 = 0.05028 | 1013.93 | 1530.9
x1 = 0.06473 | 1018.25 | 1538.3
x1 = 0.07977 | 1022.53 | 1545.1
x1 = 0.09437 | 1026.49 | 1551
x1 = 0.1125 | 1031.16 | 1557.5
x1 = 0.1347 | 1036.54 | 1564.5
x1 = 0.1596 | 1042.19 | 1571
x1 = 0.1946 | 1049.41 | 1578.3
x1 = 0.2295 | 1056.08 | 1584.1
x1 = 0.2548 | 1060.55 | 1587.5
x1 = 0.2731 | 1063.6 | 1589.5
x1 = 0.2919 | 1066.61 | 1591.4
x1 = 0.3343 | 1072.9 | 1594.7
x1 = 0.3711 | 1077.91 | 1596.7
x1 = 0.4046 | 1082.13 | 1598.1
x1 = 0.4552 | 1088.06 | 1599.4
x1 = 0.4884 | 1091.6 | 1600
x1 = 0.5025 | 1093.05 | 1600.2
x1 = 0.5225 | 1094.97 | 1600.3
x1 = 0.5564 | 1098.27 | 1600.5
x1 = 0.595 | 1101.68 | 1600.5
x1 = 0.6298 | 1104.65 | 1600.5
x1 = 0.6714 | 1107.95 | 1600.2
x1 = 0.702 | 1110.28 | 1600
x1 = 0.723 | 1111.82 | 1599.8
x1 = 0.7544 | 1113.99 | 1599.6
x1 = 0.78 | 1115.76 | 1599.4
x1 = 0.8094 | 1117.67 | 1599.1
x1 = 0.8358 | 1119.42 | 1598.8
x1 = 0.8752 | 1121.79 | 1598.6
x1 = 0.917 | 1124.23 | 1598.2
x1 = 0.9465 | 1125.98 | 1598
x1 = 0.9702 | 1127.29 | 1597.9
x1 = 1 | 1128.78 | 1597.3
